From patent publication US9840507B2, “5,6-dihydro-imidazo[1,2-a]pyrazin-8-ylamine derivatives useful as inhibitors of beta-secretase (BACE)” (Janssen Pharmaceutica, NV, priority 2010, dated 2017)
Like-named read-outs stand apart in the source and are kept apart here.

What was measured:
[1] = target: T1, recombinant BACE1 protein (Homo sapiens, UniProt P56817); assay: Biochemical FRET based assay; conditions: recombinant BACE1 1 μg/ml, 10 μm substrate, 120 minutes, room temperature, pH 5.0; for IC50: read-out: Biochemical FRET based assay pIC50 (converted)
T1 construct: recombinant BACE1 protein in a final concentration of 1 μg/ml
Excerpt: This assay is a Fluorescence Resonance Energy Transfer Assay (FRET) based assay. The substrate for this assay is an APP derived 13 amino acids peptide that contains the ‘Swedish’ Lys-Met/Asn-Leu mutation of the amyloid precursor protein (APP) β-secretase cleavage site. This substrate also contains two fluorophores: (7-methoxycoumarin-4-yl) acetic acid (Mca) is a fluorescent donor with excitation wavelength at 320 nm and emission at 405 nm and 2,4-Dinitrophenyl (Dnp) is a proprietary quencher acceptor. […] Upon cleavage by BACE1, the fluorophore Mca is separated from the quenching group Dnp, restoring the full fluorescence yield of the donor. The increase in fluorescence is linearly related to the rate of proteolysis (Koike H et al. J. Biochem. 1999, 126, 235-242).
Briefly in a 384-well format recombinant BACE1 protein in a final concentration of 1 μg/ml is incubated for 120 minutes at room temperature with 10 μm substrate in incubation buffer (40 mM Citrate buffer pH 5.0, 0.04% PEG, 4% DMSO) in the absence or presence of compound. Next the amount of proteolysis is directly measured by fluorescence measurement at T=0 and T=120 (excitation at 320 nm and emission at 405 nm).
(§1) LC=Median of the low control values
=Low control: Reaction without enzyme
(§2) HC=Median of the High control values
=High Control: Reaction with enzyme % Effect=100−[(sample−LC)/(HC−LC)*100] % Control=(sample/HC)*100% % Controlmin=(sample−LC)/(HC−LC)*100

[2] = tested on: Aβ42 produced and secreted into the medium of human neuroblastoma SKNBE2 cells; assay: Cellular αlisa assay in SKNBE2 cells, Aβ42; type: cell-based; conditions: for IC50: Homo sapiens, SKNBE2, 18 h, read-out: Cellular αlisa assay in SKNBE2 cells Aβ42 pIC50 (converted)
Experimental: (§3) In two αlisa assays the levels of Aβtotal and Aβ42 produced and secreted into the medium of human neuroblastoma SKNBE2 cells are quantified. The assay is based on the human neuroblastoma SKNBE2 expressing the wild type Amyloid Precursor Protein (hAPP695). The compounds are diluted and added to these cells, incubated for 18 hours and then measurements of Aβ42 and Aβtotal are taken. Aβtotal and Aβ42 are measured by sandwich αlisa. αlisa is a sandwich assay using biotinylated antibody AbN/25 attached to streptavidin coated beads and antibody Ab4G8 or cAb42/26 conjugated acceptor beads for the detection of Aβtotal and Aβ42 respectively. In the presence of Aβtotal or Aβ42, the beads come into close proximity. The excitation of the Donor beads provokes the release of singlet oxygen molecules that triggers a cascade of energy transfer in the Acceptor beads, resulting in light emission. Light emission is measured after 1 hour incubation (excitation at […] and emission at 615 nm).
(§4) A best-fit curve is fitted by a minimum sum of squares method to the plot of % Controlmin versus compound concentration.
as §1
(§5) =Low control: cells preincubated without compound, without biotinylated Ab in the αlisa
as §2
(§6) =High Control: cells preincubated without compound % Effect=100−[(sample−LC)/(HC−LC)*100] % Control=(sample/HC)*100% % Controlmin=(sample−LC)/(HC−LC)*100

[3] = tested on: Aβtotal produced and secreted into the medium of human neuroblastoma SKNBE2 cells; assay: Cellular αlisa assay in SKNBE2 cells, Aβtotal; type: cell-based; conditions: for IC50: Homo sapiens, SKNBE2, 18 h, read-out: Cellular αlisa assay in SKNBE2 cells Aβtotal pIC50 (converted)
Experimental: as §3, §4, §1, §5, §2, §6

[4] = SKNBE2 cells expressing hAPP695, incubated for 18 hours

T1 sequence (P56817 46-501): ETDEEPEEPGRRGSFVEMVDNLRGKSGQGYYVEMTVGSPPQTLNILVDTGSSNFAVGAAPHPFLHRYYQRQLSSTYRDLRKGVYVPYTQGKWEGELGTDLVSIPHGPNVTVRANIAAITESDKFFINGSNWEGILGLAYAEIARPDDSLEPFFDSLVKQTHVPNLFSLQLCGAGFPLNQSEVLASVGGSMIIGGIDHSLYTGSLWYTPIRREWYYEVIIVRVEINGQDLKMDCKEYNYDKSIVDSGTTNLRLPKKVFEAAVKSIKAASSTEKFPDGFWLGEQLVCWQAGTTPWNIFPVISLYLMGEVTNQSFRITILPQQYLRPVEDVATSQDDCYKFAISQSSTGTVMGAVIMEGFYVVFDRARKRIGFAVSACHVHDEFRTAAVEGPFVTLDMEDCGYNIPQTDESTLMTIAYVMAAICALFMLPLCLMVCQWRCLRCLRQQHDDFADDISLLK

Row | SMILES | IC50 [1] [nM] | IC50 [2, 4] [nM] | IC50 [3, 4] [nM] | Biochemical FRET based assay pIC50 [1] | Cellular αlisa assay in SKNBE2 cells Aβ42 pIC50 [2, 4] | Cellular αlisa assay in SKNBE2 cells Aβtotal pIC50 [3, 4] | IC50 [2] [nM] | IC50 [3] [nM]
1 | CC1(c2cccc(-c3cncnc3)c2)Cn2ccnc2C(N)=N1 (racemic) [Compound 1, rac-6-methyl-6-(3-pyrimidin-5-yl-phenyl)-5,6-dihydro-imidazo[1,2-a]pyrazin-8-ylamine] | 9770 | 191 | 174 | – | – | – | – | –
2 | CC1(c2cccc(-c3cc(Cl)cc(Cl)c3)c2)Cn2ccnc2C(N)=N1 (racemic) [Compound 3, rac-6-(3′,5′-dichloro-biphenyl-3-yl)-6-methyl-5,6-dihydro-imidazo[1,2-a]pyrazin-8-ylamine] | 26900 | – | – | – | – | – | 7940 | 7080
3 | CC1(c2cccc(NC(=O)c3ccc(Cl)cn3)c2)Cn2ccnc2C(N)=N1 (racemic) [Compound 6, rac-5-chloro-pyridine-2-carboxylic acid [3-(8-amino-6-methyl-5,6-dihydro-imidazo[1,2-a]pyrazin-6-yl)-phenyl]-amide] | 331 | 70.8 | 69.2 | – | – | – | – | –
4 | CC1(c2cc(-c3cncnc3)ccc2F)Cn2ccnc2C(N)=N1 (single isomer, unassigned) [Compound 7] | 20000 | 2750 | 2400 | – | – | – | – | –
5 | CC1(c2cc(NC(=O)c3ccc(Cl)cn3)ccc2F)Cn2ccnc2C(N)=N1 (single isomer, unassigned) [Compound 8] | – | 12.3 | 11 | – | – | – | – | –
6 | CC1(c2cc(-c3cncnc3)c(F)cc2F)Cn2ccnc2C(N)=N1 (single isomer, unassigned) [Compound 11] | 16600 | 2340 | 1950 | – | – | – | – | –
7 | C[C@@]1(c2cccc(-c3cc(Cl)cc(Cl)c3)c2)Cn2ccnc2C(N)=N1 [Compound 5, (R)-6-(3′,5′-dichloro-biphenyl-3-yl)-6-methyl-5,6-dihydro-imidazo[1,2-a]pyrazin-8-ylamine] | 14100 | – | – | – | – | – | 5890 | 5010
8 | C[C@@]1(c2cc(NC(=O)c3ncc(Cl)cc3Cl)ccc2F)Cn2ccnc2C(N)=N1 [Compound 19] | 49 | 11 | 9.77 | – | – | – | – | –
9 | C[C@@]1(c2cc(NC(=O)c3ncc(Cl)cc3F)ccc2F)Cn2ccnc2C(N)=N1 [Compound 20] | 75.9 | 17.4 | 17.8 | – | – | – | – | –
10 | C[C@@]1(c2cc(NC(=O)c3ncc(Cl)cc3Cl)ccc2F)Cn2cc(C(F)(F)F)nc2C(N)=N1 [Compound 25] | 46.8 | 21.9 | 17 | – | – | – | – | –
11 | NC1=NC(c2cc(NC(=O)c3ccc(F)cn3)ccc2F)(C(F)F)Cn2ccnc21 (stereo not drawn) [Compound 29] | > 30200 | – | – | – | <5 | <5 | – | –
12 | NC1=NC(c2cc(NC(=O)c3ncc(Cl)cc3F)ccc2F)(C(F)F)Cn2ccnc21 (stereo not drawn) [Compound 33] | 224 | 355 | 275 | – | – | – | – | –
13 | C[C@@]1(c2cc(NC(=O)c3ccn(C(F)F)n3)ccc2F)Cn2cc(C(F)(F)F)nc2C(N)=N1 [Compound 37] | – | 15.8 | 16.6 | – | – | – | – | –
14 | Cc1nc(C(=O)Nc2ccc(F)c([C@]3(C)Cn4cc(C(F)(F)F)nc4C(N)=N3)c2)co1 [Compound 38] | 100 | 42.7 | 41.7 | – | – | – | – | –
15 | Cc1nc(C(=O)Nc2ccc(F)c([C@]3(C)Cn4cc(C(F)(F)F)nc4C(N)=N3)c2)c(C(F)(F)F)o1 [Compound 39] | 269 | 158 | 158 | – | – | – | – | –
16 | Cc1nc(C(=O)Nc2ccc(F)c([C@]3(C)Cn4cc(C(F)(F)F)nc4C(N)=N3)c2)c(C)o1 [Compound 41] | 178 | 120 | 117 | – | – | – | – | –
17 | C[C@@]1(c2cc(NC(=O)c3ccsn3)ccc2F)Cn2ccnc2C(N)=N1 [Compound 45] | 427 | 66.1 | 67.6 | – | – | – | – | –
18 | C[C@@]1(c2cc(NC(=O)c3ccc(Cl)cn3)ccc2F)Cn2cc(C(F)F)nc2C(N)=N1 [Compound 50] | 58.9 | 7.41 | 8.13 | – | – | – | – | –
19 | C[C@@]1(c2cc(NC(=O)c3ccn(C(F)F)n3)ccc2F)Cn2cc(C(F)F)nc2C(N)=N1 [Compound 51] | 162 | – | – | – | – | – | – | –

Continued, in another order:

Row | IC50 [1] [nM] | IC50 [2, 4] [nM] | IC50 [3, 4] [nM] | Biochemical FRET based assay pIC50 [1] | Cellular αlisa assay in SKNBE2 cells Aβ42 pIC50 [2, 4] | Cellular αlisa assay in SKNBE2 cells Aβtotal pIC50 [3, 4] | SMILES | IC50 [2] [nM] | IC50 [3] [nM]
20 | – | 2140 | 2340 | >4.52 | – | – | COc1cncc(-c2cccc(C3(C)Cn4ccnc4C(N)=N3)c2)c1 (racemic) [Compound 2, rac-6-[3-(5-methoxy-pyridin-3-yl)-phenyl]-6-methyl-5,6-dihydro-imidazo[1,2-a]pyrazin-8-ylamine] | – | –
21 | 18600 | 2340 | 2190 | – | – | – | CC1(c2cc(-c3cncc(Cl)c3)c(F)cc2F)Cn2ccnc2C(N)=N1 (single isomer, unassigned) [Compound 12] | – | –
22 | – | 7760 | 7760 | >4.52 | – | – | C[C@@]1(c2cccc(-c3cncnc3)c2)Cn2ccnc2C(N)=N1 [Compound 4, (R)-6-methyl-6-(3-pyrimidin-5-yl-phenyl)-5,6-dihydro-imidazo[1,2-a]pyrazin-8-ylamine] | – | –
23 | 107 | 17.4 | 16.6 | – | – | – | COc1ccc(C(=O)Nc2ccc(F)c([C@]3(C)Cn4ccnc4C(N)=N3)c2)nc1 [Compound 17] | – | –
24 | 95.5 | 9.55 | 8.51 | – | – | – | C[C@@]1(c2cc(NC(=O)c3ncc(C#N)cc3F)ccc2F)Cn2ccnc2C(N)=N1 [Compound 22] | – | –
25 | 457 | 25.1 | 37.2 | – | – | – | CCOc1cnc(C(=O)Nc2ccc(F)c([C@]3(C)Cn4ccnc4C(N)=N3)c2)cn1 [Compound 23] | – | –
26 | 234 | 85.1 | 72.4 | – | – | – | COc1cnc(C(=O)Nc2ccc(F)c([C@]3(C)Cn4cc(C(F)(F)F)nc4C(N)=N3)c2)cn1 [Compound 26] | – | –
27 | 589 | – | – | – | 6.05 | 6.11 | NC1=NC(c2cc(NC(=O)c3ccc(F)cn3)ccc2F)(C(F)F)Cn2ccnc21 (stereo not drawn) [Compound 27] | – | –
28 | 295 | – | – | – | 6.17 | 6.19 | NC1=NC(c2cc(NC(=O)c3ccc(F)cn3)ccc2F)(C(F)F)Cn2ccnc21 (stereo not drawn) [Compound 28] | – | –
29 | 229 | 87.1 | 91.2 | – | – | – | C[C@@]1(c2cc(NC(=O)c3ccsn3)ccc2F)Cn2cc(C(F)(F)F)nc2C(N)=N1 [Compound 40] | – | –
30 | 115 | 19.1 | 20 | – | – | – | C[C@@]1(c2cc(NC(=O)c3ccn(C(F)F)n3)ccc2F)Cn2ccnc2C(N)=N1 [Compound 42] | – | –
31 | 186 | 38 | 42.7 | – | – | – | Cc1nc(C(=O)Nc2ccc(F)c([C@]3(C)Cn4ccnc4C(N)=N3)c2)co1 [Compound 43] | – | –
32 | 380 | 95.5 | 93.3 | – | – | – | Cc1nc(C(=O)Nc2ccc(F)c([C@]3(C)Cn4ccnc4C(N)=N3)c2)c(C(F)(F)F)o1 [Compound 44] | – | –
33 | 380 | 89.1 | 83.2 | – | – | – | Cc1nc(C(=O)Nc2ccc(F)c([C@]3(C)Cn4ccnc4C(N)=N3)c2)c(C)o1 [Compound 46] | – | –
34 | 97.7 | 8.51 | 9.33 | – | – | – | C[C@@]1(c2cc(NC(=O)c3ccc(C#N)cn3)ccc2F)Cn2cc(C(F)F)nc2C(N)=N1 [Compound 49] | – | –
35 | 63.1 | – | – | – | – | – | C[C@@]1(c2cc(NC(=O)c3ccc(F)cn3)ccc2F)Cn2c(C#N)cnc2C(N)=N1 [Compound 66, (R)—N-{3-[8-amino-3-cyano-6-methyl-5,6-dihydroimidazo[1,2-a]pyrazin-6-yl]-4-fluorophenyl}-5-fluoropyridine-2-carboxamide] | – | –
